Common to all, as to type: in vivo
Assay [1] relates to barnyardgrass (Echinochloa crus-galli L.). Briefly: Test Example 1, foliar treatment in upland pots. As to conditions: 20th to 22nd day after application, visual, read-out: Growth inhibition rate (%) Barnyardgrass. An excerpt:
(§1) Upland field soil was put into a 1/170,000 hectare pot, and seeds of various plants were sown. When the respective plants reached predetermined leaf stage ((1) barnyardgrass (Echinochloa crus-galli L.): 1.2 to 3.0 leaf stage, (2) crabgrass (Digitaria sanguinalis L.): 1.0 to 3.0 leaf stage, (3) green foxtail (Setaria viridis L.): 1.5 to 3.0 leaf stage, (4) redroot pigweed (Amaranthus retroflexus L.): cotyledon stage to 1.5 leaf stage, (5) prickly sida (Sida spinosa L.): cotyledon stage to 2.0 leaf stage, (6) velvetleaf (Abutilon theophrasti MEDIC.): cotyledon stage to 1.3 leaf stage, (7) rice (Oryza sativa L.): 1.2 to 2.5 leaf stage, (8) corn (Zea mays L.): 2.0 to 3.3 leaf stage, (9) soybean (Glycine max Merr.): primary leaf stage to 0.3 leaf stage) and wheat (Triticum spp.): 2.0 to 3.0 leaf stage, wettable powders or emulsifiable concentrates of the compounds of the present invention prepared in accordance with a conventional preparation method, were weighed so that the active ingredients became the prescribed amounts, and diluted with water in an amount corresponding to 500 liter per 1 hectare (containing 0.1 vol % of an agricultural spreader (“KUSARINOH”, manufactured by NIHON NOHYAKU CO., LTD.)). The spray solutions thus prepared were applied for foliar treatment by a small sprayer.
(§2) On the 20th to 22nd day after application, the state of growth of the respective plants was visually observed, and the herbicidal effect was evaluated by a growth inhibition rate (%) of 0 (equivalent to the non-treated area) to 100% (complete kill).

For assay [2], the system named is crabgrass (Digitaria sanguinalis L.). Kind of assay: Test Example 1, foliar treatment in upland pots. As to conditions: 20th to 22nd day after application, visual, read-out: Growth inhibition rate (%) Crabgrass.
From the text: as §1, §2

The test system of assay [3] is green foxtail (Setaria viridis L.). Briefly: Test Example 1, foliar treatment in upland pots. As to conditions: 20th to 22nd day after application, visual, read-out: Growth inhibition rate (%) Green foxtail.
From the text: as §1, §2

Assay [4] has as its system redroot pigweed (Amaranthus retroflexus L.). Kind of assay: Test Example 1, foliar treatment in upland pots. As to conditions: 20th to 22nd day after application, visual, read-out: Growth inhibition rate (%) Redroot pigweed.
From the text: as §1, §2

In assay [5] the test system is rice (Oryza sativa L.). Briefly: Test Example 1, foliar treatment in upland pots. As to conditions: 20th to 22nd day after application, visual, read-out: Growth inhibition rate (%) Rice.
From the text: as §1, §2

Assay [6] deals with soybean (Glycine max Merr.). Kind of assay: Test Example 1, foliar treatment in upland pots. As to conditions: 20th to 22nd day after application, visual, read-out: Growth inhibition rate (%) Soybean.
From the text: as §1, §2

For assay [7], the system named is velvetleaf (Abutilon theophrasti MEDIC.). Kind of assay: Test Example 1, foliar treatment in upland pots. The settings on record: 20th to 22nd day after application, visual, read-out: Growth inhibition rate (%) Velvetleaf.
From the text: as §1, §2

The subject of assay [8] is wheat (Triticum spp.). Briefly: Test Example 1, foliar treatment in upland pots. The settings on record: 20th to 22nd day after application, visual, read-out: Growth inhibition rate (%) Wheat.
From the text: as §1, §2

Assay [9] has as its system barnyardgrass (Echinochloa crus-galli L.). Kind of assay: Test Example 2, soil application on the day after sowing. As to conditions: 21st to 22nd day after application, visual, read-out: Growth inhibition rate (%) Barnyardgrass. An excerpt:
(§3) Upland field soil was put into a 1/170,000 hectare pot, and seeds of various plants (barnyardgrass (Echinochloa crus-galli L.), crabgrass (Digitaria sanquinalis L.), green foxtail (Setaria viridis L.), redroot pigweed (Amaranthus retroflexus L.), prickly sida (Sida spinosa L.), velvetleaf (Abutilon theophrasti MEDIC.), rice (Oryza sativa L.), corn (Zea mays L.), soybean (Glycine max Merr.)) and wheat (Triticum spp.) were sown. On the day after sowing, wettable powders or emulsifiable concentrates of the compounds of the present invention prepared in accordance with a conventional preparation method, were weighed so that the active ingredients became the prescribed amounts, and diluted with water in an amount corresponding to 500 liter per 1 hectare, followed by soil application with a small sprayer.
(§4) On the 21st to 22nd day after the application, the state of growth of the respective plants was visually observed, and the herbicidal effect was evaluated by a growth inhibition rate (%) of from 0 (equivalent to the non-treated area) to 100% (complete kill).

Assay [10] has as its system corn (Zea mays L.). The description is as above. As to conditions: 21st to 22nd day after application, visual, read-out: Growth inhibition rate (%) Corn.
From the text: as §3, §4

Assay [11] relates to crabgrass (Digitaria sanquinalis L.). The description is as above. The settings on record: 21st to 22nd day after application, visual, read-out: Growth inhibition rate (%) Crabgrass.
From the text: as §3, §4

For assay [12], the system named is green foxtail (Setaria viridis L.). The assay is described as above. As to conditions: 21st to 22nd day after application, visual, read-out: Growth inhibition rate (%) Green foxtail.
From the text: as §3, §4

Assay [13] deals with prickly sida (Sida spinosa L.). The description is as above. As to conditions: 21st to 22nd day after application, visual, read-out: Growth inhibition rate (%) Prickly sida.
From the text: as §3, §4

Assay [14] concerns redroot pigweed (Amaranthus retroflexus L.). The assay is described as above. The settings on record: 21st to 22nd day after application, visual, read-out: Growth inhibition rate (%) Redroot pigweed.
From the text: as §3, §4

The subject of assay [15] is rice (Oryza sativa L.). The description is as above. As to conditions: 21st to 22nd day after application, visual, read-out: Growth inhibition rate (%) Rice.
From the text: as §3, §4

Assay [16] deals with soybean (Glycine max Merr.). Described as above. The settings on record: 21st to 22nd day after application, visual, read-out: Growth inhibition rate (%) Soybean.
From the text: as §3, §4

The subject of assay [17] is velvetleaf (Abutilon theophrasti MEDIC.). Described as above. As to conditions: 21st to 22nd day after application, visual, read-out: Growth inhibition rate (%) Velvetleaf.
From the text: as §3, §4

Assay [18] deals with wheat (Triticum spp.). The description is as above. The settings on record: 21st to 22nd day after application, visual, read-out: Growth inhibition rate (%) Wheat.
From the text: as §3, §4

The subject of assay [19] is Japanese bulrush (Scirpus juncoides). Briefly: Test Example 3, paddy field pot, application to irrigated water. As to conditions: Schoenoplectiella juncoides, applied at 0.5 leaf stage, 13th to 17th day after application, read-out: Growth inhibition rate (%) Japanese bulrush. From the text:
(§5) Paddy field soil was put into a 1/1,000,000 hectare pot, and seeds of barnyardgrass (Echinochloa oryzicola vasing.) and Japanese bulrush (Scirpus juncoides) were sown and lightly covered with soil. Then, pot was left to stand in a greenhouse in a state irrigated to a water depth of from 0.5 to 1 cm, and next day or two days later, tubers of Japanese ribbon waparo (Sagittaria pygmaea) were planted. Then, the irrigated water depth was maintained to be from 3 to 4 cm, and when barnyardgrass and Japanese bulrush reached 0.5 leaf stage, and Japanese ribbon waparo reached primary leaf stage, a water diluted solution of a wettable powder or an emulsifiable concentrate of the compound of the present invention prepared in accordance with a conventional preparation method, was uniformly dropwise applied by a pipette so that the amount of active ingredients would be a prescribed amount. Further, paddy field soil was put into a 1/1,000,000 pot, followed by soil puddling to an irrigated water depth of from 3 to 4 cm. Next day, rice (Oryza sativa L.) (var.: Nihonbare) of two leaf stage was transplanted in a transplantation depth of 3 cm. On the 4th day after transplantation, the compound of the present invention was applied in the same manner as described above.
(§6) On the 13th to 17th day after application, the state of growth of barnyardgrass, Japanese bulrush and Japanese ribbon waparo was visually observed, and on the 20th to 23rd day after application, the state of growth of rice was visually observed, and the herbicidal effect was evaluated by a growth inhibition rate (%) of 0 (equivalent to the non-treated area) to 100% (complete kill).

In assay [20] the test system is Japanese ribbon waparo (Sagittaria pygmaea). Described as above. As to conditions: applied at primary leaf stage, 13th to 17th day after application, read-out: Growth inhibition rate (%) Japanese ribbon waparo.
From the text: as §5, §6

The subject of assay [21] is barnyardgrass (Echinochloa oryzicola vasing.). The assay is described as above. The settings on record: applied at 0.5 leaf stage, 13th to 17th day after application, read-out: Growth inhibition rate (%) barnyard grass.
From the text: as §5, §6

Assay [22] relates to rice (Oryza sativa L.) (var.: Nihonbare). Briefly: Test Example 3, paddy field pot, transplanted rice. The settings on record: applied 4th day after transplantation, 20th to 23rd day after application, read-out: Growth inhibition rate (%) Rice.
From the text: as §5, §6

For assay [23], the system named is corn (Zea mays L.). Briefly: Test Example 1, foliar treatment in upland pots. The settings on record: 20th to 22nd day after application, visual, read-out: Growth inhibition rate (%) Corn.
From the text: as §1, §2

With `COCc1c(S(C)(=O)=O)ccc(C(=O)c2cnn(C)c2OC(C)OC(=O)OC)c1C` (stereo not drawn) [Compound No. 1-3, 1-(4-(3-(Methoxymethyl)-2-methyl-4-(methylsulfonyl)benzoyl)-1-methyl-1H-pyrazol-5-yloxy)ethyl methyl carbonate], the inhibition (in general, the percentage by which the read-out fell short of the control) at 7 g/ha amounted to 90% in [1]; 95% in assay [2]; 80% in [3]; 80% in [4]; 60% in the assay on rice (Oryza sativa L.) [5]; 70% in [6]. The inhibition at 7 g/ha worked out at 75% in [7] and 0% in the assay on wheat (Triticum spp.) [8]. Besides, the inhibition at 250 g/ha in [9] amounted to 98%; in the assay on corn (Zea mays L.) [10], 20%; in [11], 98%; in [12], 98%; in assay [13], 95%; in assay [14], 98%. The inhibition at 250 g/ha turned out to be 98% in the assay on rice (Oryza sativa L.) [15], 60% in assay [16], 100% in assay [17] and 10% in the assay with wheat (Triticum spp.) [18]. In addition, the inhibition at 63 g/ha in assay [19] was 70%; in [20], 70%; in assay [21], 100%; in assay [22], 40%.

Take `CCOCc1c(S(C)(=O)=O)ccc(C(=O)c2cnn(C)c2OC(C)OC(=O)OC)c1C` (stereo not drawn) [Compound No. 1-1, 1-(4-(3-(Ethoxymethyl)-2-methyl-4-(methylsulfonyl)benzoyl)-1-methyl-1H-pyrazol-5-yloxy)ethyl methyl carbonate]: the inhibition at 7 g/ha turned out to be 95% in [1]; 90% in [2]; 60% in assay [3]; 60% in [4]; 20% in the assay with rice (Oryza sativa L.) [5]; 70% in assay [6]. Moreover, the inhibition at 7 g/ha was found to be 50% in assay [7] and 0% with wheat (Triticum spp.) [8]. Besides, the inhibition at 250 g/ha in assay [9] was determined as 100%; in the assay on corn (Zea mays L.) [10] it was 10%; in assay [11], 100%; in [12] it was 98%; in assay [13] it was 90%; in assay [14] it was 90%. Also, the inhibition at 250 g/ha worked out at 95% with rice (Oryza sativa L.) [15], 20% in assay [16], 98% in assay [17] and 20% with wheat (Triticum spp.) [18]. Further, the inhibition at 63 g/ha in assay [19] came out at 70%; in assay [20], 90%; in [21] it was 100%; in assay [22], 10%.

Consider `CCOCc1c(S(C)(=O)=O)ccc(C(=O)c2cnn(C)c2OC(C)OC(=O)OCC)c1C` (stereo not drawn) [Compound No. 1-4, 1-(4-(3-(Ethoxymethyl)-2-methyl-4-(methylsulfonyl)benzoyl)-1-methyl-1H-pyrazol-5-yloxy)ethyl ethyl carbonate], for which the inhibition at 7 g/ha in [1] was 95%; with corn (Zea mays L.) [23], 0%; in assay [2] it was 95%; in [3], 75%; in assay [4], 80%; in [6], 80%. Further, the inhibition at 7 g/ha is 80% in [7] and 0% in the assay on wheat (Triticum spp.) [8]. Also, the inhibition at 250 g/ha in assay [9] worked out at 98%; with corn (Zea mays L.) [10], 0%; in assay [11] it was 80%; in [12], 80%; in assay [13] it was 90%; in [14] it was 98%. In addition, the inhibition at 250 g/ha in the assay with rice (Oryza sativa L.) [15] came out at 60%; in [16] it was 40%; in [17] it was 100%; in the assay with wheat (Triticum spp.) [18], 0%. Besides, the inhibition at 63 g/ha in assay [19] turned out to be 60%; in assay [20] it was 70%; in [21] it was 100%; in assay [22] it was 20%.

The values above are taken from patent publication US8466089B2, “Pyrazole compounds, process for their production and herbicides containing them” (Ishihara Sangyo Kaisha, Ltd., priority 2008, dated 2013).
